Laboratory results taken from ChEMBL document CHEMBL5518167, “Degradation of Polo-like Kinase 1 by the Novel Poly-Arginine N-Degron Pathway PROTAC Regulates Tumor Growth in Nonsmall Cell Lung Cancer” (J Med Chem, 2024).
The source made the active and inactive calls. The rule behind the calls is not given here. Where a SMILES comes first, the peptide text is derived from it. Bridges are numbered along the chain shown (N, C = ends). [ ]: non-standard residue; d: D form. His(π-(CH2)8Ph) = N[C@@H](Cc1cncn1CCCCCCCCc1ccccc1)C(=O)O; pT = C[C@@H](OP(=O)(O)O)[C@H](N)C(=O)O; Ahx = NCCCCCC(=O)O

Experiments:
UBR/PLK1 (Homo sapiens) [1] = experiment: Protac activity at UBR/PLK1 in human A549 cells assessed as PLK1 degradation at 30 uM incubated for 24 hrs by immunoblotting analysis
NCI-H1975 [2] = experiment: Induction of cell cycle arrest in human NCI-H1975 cells assessed as delay in S phase progression at 10 uM incubated for 24 hrs by PI staining based flow cytometry analysis; type: functional
A549 [3] = experiment: Induction of apoptosis in human A549 cells at 25 uM incubated for 24 hrs by fluorescence microscopic analysis; type: functional, cell-based
PC-9 [4] = experiment: Cytotoxicity against human PC-9 cells assessed as change in morphology at 25 uM incubated for 24 hrs by phase contrast microscopic assay; type: functional, cell-based
[5] = In vivo induction of PLK1 degradation in nude mouse xenografted with human NCI-H1975 cells assessed as reduction in PLK1 protein expression at 10 mg/kg, iv administered for every 3 days by Western blotting analysis; type: functional; parameters: scale not given: the % may be the effect or the level left
[6] = In vivo induction of PLK1 degradation in nude mouse xenografted with human NCI-H1975 cells assessed as reduction in PLK1 protein expression at 10 mg/kg, iv administered for every 3 days in presence of 5 mg/kg osimertinib by Western blotting analysis; type: functional; parameters: scale not given: the % may be the effect or the level left
UBR/PLK1 (Homo sapiens) [7] = experiment: Protac activity at UBR/PLK1 in human NCI-H1975 cells assessed as PLK1 degradation at 10 uM incubated for 2 to 24 hrs by immunoblotting analysis; conditions: time 2-24 hrs
A549 [8] = experiment: Antitumor activity against human A549 cells xenografted in nude mouse assessed as fold reduction in tumor size at 10 mg/kg, iv; type: functional
UBR/PLK1 (Homo sapiens) [9] = experiment: Protac activity at UBR/PLK1 in human NCI-H1975 cells assessed as PLK1 degradation at 5 to 30 uM preincubated for 24 hrs followed by MG132 addition for 8 hrs by immunoblotting analysis; conditions: dose 5-30 µM, time 32.0 hrs
[10] = Protac activity at UBR/PLK1 in human PC-9 cells assessed as PLK1 degradation incubated for 24 hrs by immunoblotting analysis
UBR/PLK1 (Homo sapiens) [11] = experiment: as above; conditions: dose 5-25 µM
UBR/PLK1 (Homo sapiens) [12] = experiment: Protac activity at UBR/PLK1 in human PC-9 cells assessed as PLK1 degradation at 30 uM incubated for 24 hrs by immunoblotting analysis
[13] = Protac activity at UBR/PLK1 in human A549 cells assessed as PLK1 degradation incubated for 24 hrs by immunoblotting analysis
UBR/PLK1 (Homo sapiens) [14] = experiment: as above; conditions: dose 5-25 µM
[15] = target: Serine/threonine-protein kinase PLK1 (Homo sapiens, UniProt P53350); experiment: Binding affinity to PLK1 PBD (unknown origin) by ITC method
UBR/PLK1 (Homo sapiens) [16] = experiment: Protac activity at UBR/PLK1 in human A549 cells assessed as PLK1 degradation at 25 uM incubated for 2 to 24 hrs by immunoblotting analysis; conditions: time 2-24 hrs
NCI-H1975 [17] = experiment: Induction of apoptosis in human NCI-H1975 cells at 25 uM incubated for 24 hrs by fluorescence microscopic analysis; type: functional, cell-based
[18] = Drug uptake in human HeLa cells nucleus at 10 uM incubated for 24 hrs by PI staining based inverted confocal laser scanning fluorescence microscopic anlaysis; type: ADME, subcellular
UBR/PLK1 (Homo sapiens) [19] = experiment: Protac activity at UBR/PLK1 in human PC-9 cells assessed as PLK1 degradation at 10 uM incubated for 2 to 24 hrs by immunoblotting analysis; conditions: time 2-24 hrs
PC-9 [20] = experiment: Antitumor activity against human PC-9 cells xenografted in nude mouse assessed as fold reduction in tumor size at 10 mg/kg, iv; type: functional
PC-9 [21] = experiment: Induction of apoptosis in human PC-9 cells at 25 uM incubated for 24 hrs by fluorescence microscopic analysis; type: functional, cell-based
HeLa [22] = experiment: Antitumor activity against human HeLa cells xenografted in nude mouse assessed as fold reduction in tumor size at 10 mg/kg, iv; type: functional
NCI-H1975 [23] = experiment: Cytotoxicity against human NCI-H1975 cells assessed as change in morphology at 25 uM incubated for 24 hrs by phase contrast microscopic assay; type: functional, cell-based
NCI-H1975 [24] = experiment: Cytotoxicity against human NCI-H1975 cells incubated for 24 hrs by MTT assay; type: functional, cell-based; conditions: NCI-H1975, 24 h
HeLa [25] = experiment: Cytotoxicity against human HeLa cells assessed as change in morphology at 18 uM incubated for 24 hrs by phase contrast microscopic assay; type: functional, cell-based
UBR/PLK1 (Homo sapiens) [26] = experiment: Protac activity at UBR/PLK1 in human HeLa cells assessed as PLK1 degradation at 4 uM preincubated for 24 hrs followed by compound washout and measured after 24 to 48 hrs by immunoblotting analysis
NCI-H1975 [27] = experiment: Induction of cell cycle arrest in human NCI-H1975 cells assessed as fold increase in S phase population at 10 uM incubated for 24 hrs by PI staining based flow cytometry analysis; type: functional
PC-9 [28] = experiment: Induction of cell cycle arrest in human PC-9 cells assessed as delay in S phase progression at 10 uM incubated for 24 hrs by PI staining based flow cytometry analysis; type: functional
NCI-H1975 [29] = experiment: Antitumor activity against human NCI-H1975 cells harboring L858R/T790M double mutant xenografted in nude mouse assessed as fold reduction in tumor size at 10 mg/kg, iv administered for every 3 days in presence of 5 mg/kg osimertinib; type: functional
HeLa [30] = experiment: Induction of cell cycle arrest in human HeLa cells assessed as delay in S phase progression at 10 uM incubated for 24 hrs by PI staining based flow cytometry analysis; type: functional
PC-9 [31] = experiment: Induction of cell cycle arrest in human PC-9 cells assessed as G2/M phase arrest at 10 uM incubated for 24 hrs by PI staining based flow cytometry analysis; type: functional
A549 [32] = experiment: Cytotoxicity against human A549 cells assessed as change in morphology at 25 uM incubated for 24 hrs by phase contrast microscopic assay; type: functional, cell-based
NCI-H1975 [33] = experiment: Antitumor activity against human NCI-H1975 cells harboring L858R/T790M double mutant xenografted in nude mouse assessed as fold reduction in tumor growth at 10 mg/kg, iv administered for every 3 days in presence of 5 mg/kg osimertinib; type: functional
UBR/PLK1 (Homo sapiens) [34] = experiment: Protac activity at UBR/PLK1 in human HeLa cells assessed as PLK1 degradation at 0.3 to 3 uM preincubated for 24 hrs followed by MG132 addition for 8 hrs by immunoblotting analysis; conditions: dose 0.3-3 µM

Serine/threonine-protein kinase PLK1, sequence (P53350 whole entry): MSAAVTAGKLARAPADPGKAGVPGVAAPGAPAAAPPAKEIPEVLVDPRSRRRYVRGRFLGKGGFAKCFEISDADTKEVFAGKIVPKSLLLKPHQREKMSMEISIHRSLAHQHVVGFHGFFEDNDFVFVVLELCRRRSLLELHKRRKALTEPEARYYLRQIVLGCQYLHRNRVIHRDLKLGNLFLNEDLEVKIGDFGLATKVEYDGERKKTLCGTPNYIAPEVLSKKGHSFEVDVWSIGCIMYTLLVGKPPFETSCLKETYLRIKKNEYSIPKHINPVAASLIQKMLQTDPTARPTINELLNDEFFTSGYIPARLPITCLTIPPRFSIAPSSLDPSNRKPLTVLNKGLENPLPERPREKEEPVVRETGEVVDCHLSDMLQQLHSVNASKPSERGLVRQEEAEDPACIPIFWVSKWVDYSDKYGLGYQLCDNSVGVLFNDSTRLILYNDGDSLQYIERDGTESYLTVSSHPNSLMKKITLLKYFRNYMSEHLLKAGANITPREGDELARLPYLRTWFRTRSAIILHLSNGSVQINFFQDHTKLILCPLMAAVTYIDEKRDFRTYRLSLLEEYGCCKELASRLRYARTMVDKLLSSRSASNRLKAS

With C[C@@H](OP(=O)(O)O)[C@@H]1NC(=O)[C@H](Cc2cncn2CCCCCCCCc2ccccc2)NC(=O)[C@@H](NC(=O)CCCCCNC(=O)[C@H](CCCNC(=N)N)NC(=O)[C@H](CCCNC(=N)N)NC(=O)[C@H](CCCNC(=N)N)NC(=O)[C@H](CCCNC(=N)N)NC(=O)[C@H](CCCNC(=N)N)NC(=O)[C@H](CCCNC(=N)N)NC(=O)[C@H](CCCNC(=N)N)NC(=O)[C@H](CCCNC(=N)N)NC(=O)[C@H](CCCNC(=N)N)NC(=O)[C@H](CCCNC(=N)N)NC(=O)[C@H](CCCNC(=N)N)NC(=O)[C@@H](N)CCCNC(=N)N)CCC(=O)NCCCC[C@@H](C(N)=O)NC1=O (H-RRRRRRRRRRRR[Ahx]E[His(π-(CH2)8Ph)][pT]K-NH2; lactam 14-17) the Emax (UBR/PLK1 (Homo sapiens) [1]) was over 60%, the Activity (NCI-H1975 [2]) was “Active” and the Activity (A549 [3]) was “Active”. The Activity (PC-9 [4]) was “Active”, the Activity [5] was over 60% and the Activity [6] was 75%. For the same compound, the Activity (UBR/PLK1 (Homo sapiens) [7]) was “Active”, the “fold change (FC)” value (A549 [8]) was 6.3 and the Activity (UBR/PLK1 (Homo sapiens) [9]) was “inactive”. For the same compound, the DC50 [10] was 12 µM, the Activity (UBR/PLK1 (Homo sapiens) [11]) was “Dose-Dependent Effect” and the Emax (UBR/PLK1 (Homo sapiens) [12]) was 100%. For the same compound, the DC50 [13] was 27 µM, the Activity (UBR/PLK1 (Homo sapiens) [14]) was “Dose-Dependent Effect” and the Kd [15] was 3.48 µM. The Activity (UBR/PLK1 (Homo sapiens) [16]) was “Active”, the Activity (NCI-H1975 [17]) was “Active” and the Drug uptake [18] was “Active”. The Activity (UBR/PLK1 (Homo sapiens) [19]) was “Active”, the “fold change (FC)” value (PC-9 [20]) was 5.2 and the Activity (PC-9 [21]) was “Active”. For the same compound, the “fold change (FC)” value (HeLa [22]) was 3.4, the Activity (NCI-H1975 [23]) was “Active” and the IC50 (NCI-H1975 [24]) was 24.4 µM. For the same compound, the Activity (HeLa [25]) was “Active”, the Activity (UBR/PLK1 (Homo sapiens) [26]) was “Active” and the Activity (NCI-H1975 [27]) was “Active”. For the same compound, the Activity (PC-9 [28]) was “Active”, the “fold change (FC)” value (NCI-H1975 [29]) was 3.5 and the Activity (HeLa [30]) was “Active”. For the same compound, the Activity (PC-9 [31]) was 9%, the Activity (A549 [32]) was “Active” and the “fold change (FC)” value (NCI-H1975 [33]) was about 7. The Activity (UBR/PLK1 (Homo sapiens) [34]) was “inactive”.
